{"source": "paper PMC8709172", "about": "“High-Throughput Screening Campaign Identified a Potential Small Molecule RXFP3/4 Agonist” (Molecules, 2021)", "key": {"human RXFP3 (hRXFP3) [1]": {"target": "T1, human RXFP3 (hRXFP3) (Homo sapiens, UniProt Q9NSD7)", "T1 sequence (Q9NSD7 1-469)": "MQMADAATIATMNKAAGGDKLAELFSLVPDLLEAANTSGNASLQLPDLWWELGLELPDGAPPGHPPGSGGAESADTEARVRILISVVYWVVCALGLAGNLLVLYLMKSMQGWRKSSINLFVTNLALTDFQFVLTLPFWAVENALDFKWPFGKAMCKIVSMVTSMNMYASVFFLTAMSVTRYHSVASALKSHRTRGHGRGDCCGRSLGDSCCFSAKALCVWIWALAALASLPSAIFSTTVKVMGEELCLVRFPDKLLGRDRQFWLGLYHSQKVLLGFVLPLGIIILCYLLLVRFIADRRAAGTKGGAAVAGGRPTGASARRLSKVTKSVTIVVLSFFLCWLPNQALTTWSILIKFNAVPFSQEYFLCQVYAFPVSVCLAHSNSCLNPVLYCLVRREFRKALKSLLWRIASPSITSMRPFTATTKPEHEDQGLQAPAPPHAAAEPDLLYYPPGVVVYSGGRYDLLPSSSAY", "assay": "competition binding with europium-labelled H3 B1-22R on RXFP3 CHO-K1 cells", "format": "cell-based", "conditions": "5 nM Eu-H3 B1-22R, one-site fit Ki, tracer Kd 26 nM; competitive"}, "human RXFP3 (hRXFP3) [2]": {"target": "T1, human RXFP3 (hRXFP3)", "assay": "cell-based", "design": "TR-FRET inhibition of forskolin-stimulated cAMP accumulation, single-dose primary screen, percent of R3/I5 control", "conditions": "CHO; primary screen, relative to 5 nM R3/I5; read-out: % activation", "protocol": "The HTS campaign was carried out in white 384-well plates by measuring the inhibition of forskolin-stimulated cAMP accumulation in hRXFP3-CHO cells. Briefly, the positive control (5 nM R3/I5) and negative control (1% DMSO) were located at the 64 wells of the outer four columns on both sides with 32 replicates, respectively. The individual screening compounds were loaded at the center twenty columns with an average final concentration of 10 μM in a single-dose format without replicates. Time-resolved fluorescence resonance energy transfer (TR-FRET) signals were read by an EnVision multilabel plate reader (PerkinElmer). Z’ factor, coefficient of variation (CV) and signal-to-background ratio (S/B) were calculated according to the literature. Positive control was regarded as 100% activation, while negative control represented no activation. Compounds showing greater than 50% activation were considered hits, and secondary screening using the same assay was performed to eliminate false positives. cAMP accumulation assay was performed in hRXFP3-CHO cells at a density of 5 × 10^5 cells/mL. […] Plates were incubated at RT for 60 min and the fluorescence intensity measured at 620 nm and 665 nm by an EnVision multilabel plate reader. […]"}, "human RXFP3 (hRXFP3) [3]": {"target": "T1, human RXFP3 (hRXFP3)", "assay": "cAMP accumulation TR-FRET in hRXFP3-CHO cells", "format": "cell-based"}, "human RXFP3 (hRXFP3) [4]": {"target": "T1, human RXFP3 (hRXFP3)", "assay": "cell-based", "design": "species or system CHO-K1; Europium-labelled H3 B1-22R competition binding on CHO-K1 cells stably expressing RXFP3", "conditions": "vs 5 nM Eu-H3 B1-22R", "protocol": "CHO-K1 cells stably transfected with RXFP3 were plated onto pre-coated poly-L-lysine 96-well plates for the binding assay performed using 5 nM europium (Eu)-H3 B1-22R as previously described with triplicate determinations within assay and a minimum of three independent experiments. Data are presented as means ± SEM. pKi values were calculated using one-site fit Ki and a Kd value of 26 nM for H3 B1-22R [47]."}, "human RXFP4 (hRXFP4)": {"target": "human RXFP4 (hRXFP4) (Homo sapiens, UniProt Q8TDU9)", "sequence (Q8TDU9 whole entry)": "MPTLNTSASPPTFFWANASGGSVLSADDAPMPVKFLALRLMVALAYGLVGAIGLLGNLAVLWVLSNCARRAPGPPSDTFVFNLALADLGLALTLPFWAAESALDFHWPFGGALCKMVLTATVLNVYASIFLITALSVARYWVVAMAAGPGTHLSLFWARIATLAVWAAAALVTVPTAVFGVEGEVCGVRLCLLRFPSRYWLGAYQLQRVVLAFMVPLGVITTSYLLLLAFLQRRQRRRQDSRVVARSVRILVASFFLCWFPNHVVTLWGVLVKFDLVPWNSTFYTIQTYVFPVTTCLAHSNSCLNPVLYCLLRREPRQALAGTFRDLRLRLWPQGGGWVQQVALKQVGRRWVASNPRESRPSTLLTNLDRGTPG", "assay": "cAMP accumulation TR-FRET in hRXFP4-CHO cells", "format": "cell-based"}, "human RXFP3 (hRXFP3) [5]": {"target": "T1, human RXFP3 (hRXFP3)", "assay": "cell-based", "design": "HTS inhibition of forskolin-stimulated cAMP, TR-FRET; % activation relative to R3/I5", "conditions": "hRXFP3-CHO; primary screen, single dose; read-out: % activation", "protocol": "The HTS campaign was carried out in white 384-well plates by measuring the inhibition of forskolin-stimulated cAMP accumulation in hRXFP3-CHO cells. Briefly, the positive control (5 nM R3/I5) and negative control (1% DMSO) were located at the 64 wells of the outer four columns on both sides with 32 replicates, respectively. The individual screening compounds were loaded at the center twenty columns with an average final concentration of 10 μM in a single-dose format without replicates. Time-resolved fluorescence resonance energy transfer (TR-FRET) signals were read by an EnVision multilabel plate reader (PerkinElmer). Z’ factor, coefficient of variation (CV) and signal-to-background ratio (S/B) were calculated according to the literature. Positive control was regarded as 100% activation, while negative control represented no activation. Compounds showing greater than 50% activation were considered hits, and secondary screening using the same assay was performed to eliminate false positives. cAMP accumulation assay was performed in hRXFP3-CHO cells at a density of 5 × 10^5 cells/mL. The cells were treated with different concentrations of compounds plus 25 μM forskolin and 500 μM IBMX for 30 min at room temperature (RT). cAMP-d2 conjugate and cryptate conjugate working solutions were then diluted and added to the plates separately. Plates were incubated at RT for 60 min and the fluorescence intensity measured at 620 nm and 665 nm by an EnVision multilabel plate reader. The parental CHO cells were applied to examine off-target effect, while hRXFP4-CHO cells were utilized for selectivity assessment."}}, "note": "Like-named read-outs stand apart in the source and are kept apart here."}
{"smiles": "CC(C)(CCc1ccc(NS(=O)(=O)c2ccccc2)cc1)NCC(O)COc1ccc(O)c(NS(C)(=O)=O)c1", "note": "(racemic) [WNN0109-C011]", "values": [{"measurement": "pKi", "setting": "human RXFP3 (hRXFP3) [1]", "value": "further confirmed the direct binding of WNN0109-C011 and its two enantiomers with RXFP3"}, {"measurement": "activity at 10 µM", "setting": "human RXFP3 (hRXFP3) [2]", "value": 85, "unit": "%"}, {"measurement": "EC50", "setting": "human RXFP3 (hRXFP3) [3]", "value": 2.51, "unit": "µM"}, {"measurement": "Ki", "setting": "human RXFP3 (hRXFP3) [4]", "value": 41.7, "unit": "µM"}, {"measurement": "EC50", "setting": "human RXFP4 (hRXFP4)", "value": 33.9, "unit": "µM"}]}
{"smiles": "CC(C)(CCc1ccc(NS(=O)(=O)c2ccccc2)cc1)NC[C@@H](O)COc1ccc(O)c(NS(C)(=O)=O)c1", "note": "[R-WNN0109-C011]", "values": [{"measurement": "pKi", "setting": "human RXFP3 (hRXFP3) [1]", "value": "further confirmed the direct binding of WNN0109-C011 and its two enantiomers with RXFP3"}, {"measurement": "Ki", "setting": "human RXFP3 (hRXFP3) [4]", "value": 31.6, "unit": "µM"}]}
{"smiles": "CC(C)(CCc1ccc(NS(=O)(=O)c2ccccc2)cc1)NC[C@H](O)COc1ccc(O)c(NS(C)(=O)=O)c1", "note": "[S-WNN0109-C011]", "values": [{"measurement": "pKi", "setting": "human RXFP3 (hRXFP3) [1]", "value": "further confirmed the direct binding of WNN0109-C011 and its two enantiomers with RXFP3"}, {"measurement": "Ki", "setting": "human RXFP3 (hRXFP3) [4]", "value": 91.2, "unit": "µM"}]}
{"smiles": "O=C(O)Cn1c(=O)c(=O)[nH]c2c(Br)cc(Br)cc21", "note": "[WNN0002-F006]", "values": [{"measurement": "activity at 10 µM", "setting": "human RXFP3 (hRXFP3) [5]", "value": 73, "unit": "%"}]}
{"smiles": "Nc1ccc2sc3[nH]c(=O)c(=O)[nH]c3c2c1", "note": "[WNN0003-B006]", "values": [{"measurement": "activity at 10 µM", "setting": "human RXFP3 (hRXFP3) [5]", "value": 54, "unit": "%"}]}
{"smiles": "O=c1[nH]c2scc(C3CCCCC3)c2[nH]c1=O", "note": "[WNN0003-F007]", "values": [{"measurement": "activity at 10 µM", "setting": "human RXFP3 (hRXFP3) [5]", "value": 51, "unit": "%"}]}
{"smiles": "Cc1sc2[nH]c(=O)c(=O)[nH]c2c1C", "note": "[WNN0003-G011]", "values": [{"measurement": "activity at 10 µM", "setting": "human RXFP3 (hRXFP3) [5]", "value": 54, "unit": "%"}]}
{"smiles": "Cc1csc2[nH]c(=O)c(=O)n(C)c12", "note": "[WNN0004-D007]", "values": [{"measurement": "activity at 10 µM", "setting": "human RXFP3 (hRXFP3) [5]", "value": 57, "unit": "%"}]}
{"smiles": "O=C1NCCCC1C1=NC(CO)(CO)CO1", "note": "(stereo not drawn) [WNN0027-E003]", "values": [{"measurement": "activity at 10 µM", "setting": "human RXFP3 (hRXFP3) [5]", "value": 53, "unit": "%"}]}
{"smiles": "CS/C(=N/C#N)Nc1ccc2c(c1)OCCO2", "note": "[WNN0027-G008]", "values": [{"measurement": "activity at 10 µM", "setting": "human RXFP3 (hRXFP3) [5]", "value": 56, "unit": "%"}]}
{"smiles": "O=C(CCCCN1CCCCC1)c1ccccc1", "note": "[WNN0028-D009]", "values": [{"measurement": "activity at 10 µM", "setting": "human RXFP3 (hRXFP3) [5]", "value": 56, "unit": "%"}]}
{"smiles": "O=C(O)C1CCCN(CCC=C2c3ccccc3CCc3cc(-c4ccccc4)ccc32)C1", "note": "(stereo not drawn) [WNN0063-E008]", "values": [{"measurement": "activity at 10 µM", "setting": "human RXFP3 (hRXFP3) [5]", "value": 68, "unit": "%"}]}
{"smiles": "O=C(O)C1CCN(CCC=C2c3ccccc3CCc3cc(-c4ccccc4)ccc32)CC1", "note": "[WNN0063-E009]", "values": [{"measurement": "activity at 10 µM", "setting": "human RXFP3 (hRXFP3) [5]", "value": 130, "unit": "%"}]}
{"smiles": "O=c1[nH]c2ccccc2n(C(c2ccccc2)c2ccccc2)c1=O", "note": "[WNN0119-H005]", "values": [{"measurement": "activity at 10 µM", "setting": "human RXFP3 (hRXFP3) [5]", "value": 82, "unit": "%"}]}
{"smiles": "O=C(c1ccccc1O)N1CCc2nc3ncccc3cc2C1", "note": "[WNN0195-H002]", "values": [{"measurement": "activity at 10 µM", "setting": "human RXFP3 (hRXFP3) [5]", "value": 65, "unit": "%"}]}
{"smiles": "CSc1nccc(-c2ccc(Br)s2)n1", "note": "[WNN0196-B004]", "values": [{"measurement": "activity at 10 µM", "setting": "human RXFP3 (hRXFP3) [5]", "value": 78, "unit": "%"}]}
{"smiles": "C[N+](C)=c1ccc2nc3ccc(N)cc3sc-2c1", "note": "[WNN0314-F004]", "values": [{"measurement": "activity at 10 µM", "setting": "human RXFP3 (hRXFP3) [5]", "value": 50, "unit": "%"}]}
{"smiles": "CN(C)c1ccc2nc3ccc(=[N+](C)C)cc-3sc2c1", "note": "[WNN0314-G003]", "values": [{"measurement": "activity at 10 µM", "setting": "human RXFP3 (hRXFP3) [5]", "value": 51, "unit": "%"}]}
